# In patent publication US12343350B2, “Istaroxime-containing intravenous formulation for the treatment of acute heart failure (AHF)” (Windtree Therapeutics, Inc., priority 2019, dated 2025):
# Marks after values point to notes of the source that are not given here.
# System: STZ diabetic rats
# Assay: Haemodynamics in streptozotocin (STZ) diabetic rats (echocardiography 2M-Doppler-Tissue Doppler)
# Format: in vivo, rat
# Method: Sprague Dawley male rats (150-175 g) were made diabetic by a single injection into the tail vein of a solution of streptozotocin (STZ, 50 mg/kg, Sigma-Aldrich), freshly prepared in 0.1 M sodium citrate buffer, pH 4.5. Control rats received citrate buffer. Fasting glycaemia was measured after 1 week and rats with values greater than 400 mg/dl were considered diabetic.
# Eight to nine weeks after STZ injection, rats were submitted to transthoracic echocardiographic and Doppler evaluation performed under pentobarbital anesthesia. Two-dimensionally guided M-mode recordings were used to obtain short-axis measurements of left ventricular end-diastolic diameter (LVEDD), left ventricular end-systolic diameter (LVESD), posterior (PW) and septal (SW) diastolic wall thickness according to the American Society of Echocardiography guidelines (Lang R M et al., Eur J Echocardiography 2006; 7:79-108). Fractional shortening was calculated as FS=(LVEDD-LVESD)/LVEDD. Relative wall thickness was calculated as PWTd+IVSTd/LVEDD.
# Mitral inflow was measured by pulsed Doppler at the tips of mitral leaflets from an apical 4-chamber view to obtain early and late filling velocities (E, A) and deceleration time of early filling velocity (DT). The deceleration slope was calculated as E/DT ratio. The mitral deceleration index was calculated as DT/E ratio.
# Tissue Doppler Imaging (TDI) was evaluated from the apical 4-chamber view to record septal mitral annular movements, i.e., peak myocardial systolic (s′) and early and late diastolic velocity (e′ and a′).
# The compound PST 3093 was iv administered to STZ injected rats at the dose of 0.22 mg/kg and echocardiographic parameters were measured after 15 and 30 min from the beginning of iv infusion and 10 min after interruption of infusion.
# [1] = after 10 min from STOP infusion
compound,measurement,setting,value
"C[C@]12CCC(=NOCC(=O)O)CC1[C@H](O)CC1C2CC[C@]2(C)C(=O)CCC12 (stereo partly drawn) [PST 3093, (E,Z)-[(6-beta-hydroxy-17-oxoandrostan-3-ylidene)amino]oxyacetic acid]","CO, cardiac output","0.22 mg/kg iv, after 15 min",231.7 ± 64 mL/min
same,"DT, deceleration time of E wave","0.22 mg/kg iv, after 15 min",40.2 ± 9.54 ms
same,"DT/E, mitral deceleration index","0.22 mg/kg iv, after 15 min",40.39 ± 15.04* s^2/m
same,"E, E wave, early filling velocity of mitral inflow","0.22 mg/kg iv, after 15 min",1.048 ± 0.218
same,"E/DT, decelaration slope","0.22 mg/kg iv, after 15 min",27.51 ± 8.42 m/s^2
same,"E/e′, index of LV filling pressure","0.22 mg/kg iv, after 15 min",38.61 ± 4.71
same,"HR, heart rate","0.22 mg/kg iv, after 15 min",271 ± 33 beat/min
same,"SV, stroke volume","0.22 mg/kg iv, after 15 min",0.85 ± 0.18 ml/beat
same,"e′ TDI, early relaxation velocity","0.22 mg/kg iv, after 15 min",27.01 ± 3.4 cm/s
same,"CO, cardiac output","0.22 mg/kg iv, after 30 min",230.6 ± 46.7 mL/min
same,"DT, deceleration time of E wave","0.22 mg/kg iv, after 30 min",36.6 ± 6.09 ms
same,"DT/E, mitral deceleration index","0.22 mg/kg iv, after 30 min",35.47 ± 10.19* s^2/m
same,"E, E wave, early filling velocity of mitral inflow","0.22 mg/kg iv, after 30 min",1.076 ± 0.211
same,"E/DT, decelaration slope","0.22 mg/kg iv, after 30 min",30.36 ± 8.73 m/s^2
same,"E/e′, index of LV filling pressure","0.22 mg/kg iv, after 30 min",38.7 ± 4.26
same,"HR, heart rate","0.22 mg/kg iv, after 30 min",269 ± 29 beat/min
same,"SV, stroke volume","0.22 mg/kg iv, after 30 min",0.86 ± 0.14 ml/beat
same,"e′ TDI, early relaxation velocity","0.22 mg/kg iv, after 30 min",27.77 ± 4.27 cm/s
same,"CO, cardiac output",[1],200.88 ± 51.7 mL/min
same,"DT, deceleration time of E wave",[1],41.88 ± 7.86 ms
same,"DT/E, mitral deceleration index",[1],49.08 ± 13.09* s^2/m
same,"E, E wave, early filling velocity of mitral inflow",[1],0.89 ± 0.19
same,"E/DT, decelaration slope",[1],22.36 ± 8.89 m/s^2
same,"E/e′, index of LV filling pressure",[1],39.45 ± 4.18
same,"HR, heart rate",[1],249 ± 28 beat/min
same,"SV, stroke volume",[1],0.81 ± 0.17 ml/beat
same,"e′ TDI, early relaxation velocity",[1],22.48 ± 3.35 cm/s
